In ChEMBL document CHEMBL2321716, “Exploring a new frontier in cancer treatment: targeting the ubiquitin and ubiquitin-like activating enzymes” (J Med Chem, 2013):

How the values were obtained:
[1] = molecular target: T1, NEDD8-activating enzyme E1 regulatory subunit (Homo sapiens, UniProt Q13564); assay: Inhibition of NAE (unknown origin) assessed as decrease in NEDD8-Ubcl2 formation
T1 sequence (Q13564 whole entry): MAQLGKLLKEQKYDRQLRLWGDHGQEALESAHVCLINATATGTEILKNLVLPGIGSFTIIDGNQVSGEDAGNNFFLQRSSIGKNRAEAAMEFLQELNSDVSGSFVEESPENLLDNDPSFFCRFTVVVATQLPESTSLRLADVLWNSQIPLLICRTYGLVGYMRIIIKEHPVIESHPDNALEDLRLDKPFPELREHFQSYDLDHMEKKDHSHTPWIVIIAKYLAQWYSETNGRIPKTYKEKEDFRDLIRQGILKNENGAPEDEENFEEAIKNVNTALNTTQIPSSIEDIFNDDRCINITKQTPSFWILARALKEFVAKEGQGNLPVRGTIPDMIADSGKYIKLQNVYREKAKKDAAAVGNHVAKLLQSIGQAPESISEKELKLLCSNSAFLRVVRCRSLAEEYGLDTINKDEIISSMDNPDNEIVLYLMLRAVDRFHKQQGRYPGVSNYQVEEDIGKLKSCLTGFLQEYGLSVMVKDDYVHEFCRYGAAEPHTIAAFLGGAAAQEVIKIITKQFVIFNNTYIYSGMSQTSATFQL

[2] = molecular target: T2, NEDD8-activating enzyme E1 catalytic subunit (Homo sapiens, UniProt Q8TBC4); assay: Inhibition of NAE (unknown origin)-catalyzed transthiolation of NEDD8 from NAE to Ubc12
T2 sequence (Q8TBC4 whole entry): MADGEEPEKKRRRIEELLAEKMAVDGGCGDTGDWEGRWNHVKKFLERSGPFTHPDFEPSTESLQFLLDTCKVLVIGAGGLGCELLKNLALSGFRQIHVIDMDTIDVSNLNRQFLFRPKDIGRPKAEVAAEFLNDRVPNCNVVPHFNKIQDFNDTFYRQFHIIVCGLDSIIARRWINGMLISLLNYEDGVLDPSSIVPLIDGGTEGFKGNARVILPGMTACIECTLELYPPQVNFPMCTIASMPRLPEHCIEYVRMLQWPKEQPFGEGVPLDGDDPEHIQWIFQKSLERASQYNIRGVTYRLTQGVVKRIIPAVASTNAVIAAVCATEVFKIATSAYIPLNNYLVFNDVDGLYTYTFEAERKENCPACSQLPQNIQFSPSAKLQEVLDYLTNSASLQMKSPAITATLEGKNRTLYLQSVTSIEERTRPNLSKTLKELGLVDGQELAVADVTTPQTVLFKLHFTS

[3] = molecular target: T3, SUMO-activating enzyme subunit 1 (Homo sapiens, UniProt Q9UBE0); assay: Inhibition of human SAE by fluorescence assay
T3 sequence (Q9UBE0 whole entry): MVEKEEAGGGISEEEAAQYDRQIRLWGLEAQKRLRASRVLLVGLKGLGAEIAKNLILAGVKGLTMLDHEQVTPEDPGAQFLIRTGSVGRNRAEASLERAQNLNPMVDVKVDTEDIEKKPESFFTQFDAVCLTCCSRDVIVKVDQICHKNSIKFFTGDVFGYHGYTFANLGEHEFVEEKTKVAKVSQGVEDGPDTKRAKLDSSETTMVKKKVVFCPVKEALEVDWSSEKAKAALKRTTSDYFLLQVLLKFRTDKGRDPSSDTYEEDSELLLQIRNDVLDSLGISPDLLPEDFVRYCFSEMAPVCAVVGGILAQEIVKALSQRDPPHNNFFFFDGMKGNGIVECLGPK

[4] = Inhibition of N-terminal GST-tagged human UAE-catalyzed UAE-Ub thioester intermediate formation expressed in HI5 insect cells after 15 mins by SDS-PAGE analysis
[5] = molecular target: T3, SUMO-activating enzyme subunit 1; assay: Inhibition of recombinant SAE1(unknown origin)-mediated SUMOylation of RanGAP1-C2
[6] = Inhibition of recombinant yeast UAE-catalyzed UAE-Ub intermediate formation after 15 mins by densitometric analysis; set-up: species or system Saccharomyces cerevisiae
MCF7 = assay: Cytotoxicity against human MCF7 cells after 48 hrs by WST8 assay; type: functional, cell-based; conditions: MCF7, 48 h
Caco-2 = assay: Cytotoxicity against human Caco2 cells by MTT assay; type: functional, cell-based
[7] = molecular target: T2, NEDD8-activating enzyme E1 catalytic subunit; assay: Inhibition of NAE (unknown origin)-catalyzed NEDD8-Ubcl2 intermediate formation by densitometric analysis
[8] = molecular target: T3, SUMO-activating enzyme subunit 1; assay: Inhibition of recombinant His-tagged SAE1(unknown origin)-mediated SUMOylation of RanGAP1-C2 by immunoblotting analysis
[9] = Inhibition of FLAG-tagged human recombinant UAE-catalyzed UAE-Ub thioester intermediate formation immunoblotting analysis

O=c1cc(-c2ccc(O)cc2)oc2cc(O)c(-c3c(O)cc4oc(-c5ccc(O)cc5)cc(=O)c4c3O)c(O)c12
IC50 [1]: 5 µM | IC50 [2]: 20 µM

CCCCCCCC(=O)SCC/C=C/[C@@H]1CC(=O)NCc2nc(cs2)C2=N[C@@](C)(CS2)C(=O)N[C@@H](C(C)C)C(=O)O1 [LARGAZOLE]
IC50 [3]: 450 µM | IC50 [4]: 29 µM

CCCCCCCCCCCCCCCc1cccc(O)c1C(=O)O [ANACARDIC ACID]
IC50 [5]: 2.2 µM

C/C=C/[C@]12C(=O)[C@H]3O[C@H]3[C@H](O)[C@H]1[C@H]1C(=C[C@@H]2C)C(=O)[C@H]2O[C@H]2[C@@H]1O
IC50 [6]: 9.4 µM | IC50 (MCF7): 5.4 µM

CCCCCC/C=C\CCCCCCCc1cccc(O)c1C(=O)O [GINGKOLIC ACID]
IC50 [5]: 3 µM

O=C(O)CNC(=O)CNC(=O)COc1ccc2nc3n(c(=O)c2c1)CCC3
IC50 (Caco-2): 10 µM | IC50 [7]: 0.8 µM

CCCCCCCC/C=C/[C@]12C(=O)[C@H]3O[C@H]3[C@H](O)[C@H]1[C@H]1C(=C[C@@H]2CCCCCCCC)C(=O)[C@H]2O[C@H]2[C@@H]1O
IC50 [6]: 90 µM | IC50 (MCF7): 3.6 µM

C[C@@H]1O[C@@H](O[C@H]2[C@H](O)C[C@H](c3ccc4c(c3O)C(=O)C3=C(C4=O)[C@@]4(O[C@H]5CC[C@H](O)[C@H](C)O5)C(=O)C[C@](C)(O)C[C@@]4(O)C=C3)O[C@@H]2C)CC[C@@H]1O[C@H]1C[C@@H](O)[C@H](O)[C@@H](C)O1 [KERRIAMYCIN B]
IC50 [8]: 11.7 µM

CCCC/C=C/[C@]12C(=O)[C@H]3O[C@H]3[C@H](O)[C@H]1[C@H]1C(=C[C@@H]2CCCC)C(=O)[C@H]2O[C@H]2[C@@H]1O
IC50 [6]: 3.5 µM | IC50 (MCF7): 1 µM

C[C@@H](CC(=O)NC(=O)c1coc(/C=C/CCCCCCCCC(=O)O)cc1=O)C(=O)O [HIMEIC ACID A]
IC50 [9]: 50 µM
